Assay results published in US5432260A, “High affinity mannose receptor ligands” (Washington University, priority 1991, dated 1995).

Target: T1, purified mannose receptor (Homo sapiens, UniProt P22897)
T1 construct: purified mannose receptor (Lennartz, M. R. et al., J Biol Chem (1987) 262:9942-9944 (supra)) is added; from tissue
T1 sequence (P22897 19-1456): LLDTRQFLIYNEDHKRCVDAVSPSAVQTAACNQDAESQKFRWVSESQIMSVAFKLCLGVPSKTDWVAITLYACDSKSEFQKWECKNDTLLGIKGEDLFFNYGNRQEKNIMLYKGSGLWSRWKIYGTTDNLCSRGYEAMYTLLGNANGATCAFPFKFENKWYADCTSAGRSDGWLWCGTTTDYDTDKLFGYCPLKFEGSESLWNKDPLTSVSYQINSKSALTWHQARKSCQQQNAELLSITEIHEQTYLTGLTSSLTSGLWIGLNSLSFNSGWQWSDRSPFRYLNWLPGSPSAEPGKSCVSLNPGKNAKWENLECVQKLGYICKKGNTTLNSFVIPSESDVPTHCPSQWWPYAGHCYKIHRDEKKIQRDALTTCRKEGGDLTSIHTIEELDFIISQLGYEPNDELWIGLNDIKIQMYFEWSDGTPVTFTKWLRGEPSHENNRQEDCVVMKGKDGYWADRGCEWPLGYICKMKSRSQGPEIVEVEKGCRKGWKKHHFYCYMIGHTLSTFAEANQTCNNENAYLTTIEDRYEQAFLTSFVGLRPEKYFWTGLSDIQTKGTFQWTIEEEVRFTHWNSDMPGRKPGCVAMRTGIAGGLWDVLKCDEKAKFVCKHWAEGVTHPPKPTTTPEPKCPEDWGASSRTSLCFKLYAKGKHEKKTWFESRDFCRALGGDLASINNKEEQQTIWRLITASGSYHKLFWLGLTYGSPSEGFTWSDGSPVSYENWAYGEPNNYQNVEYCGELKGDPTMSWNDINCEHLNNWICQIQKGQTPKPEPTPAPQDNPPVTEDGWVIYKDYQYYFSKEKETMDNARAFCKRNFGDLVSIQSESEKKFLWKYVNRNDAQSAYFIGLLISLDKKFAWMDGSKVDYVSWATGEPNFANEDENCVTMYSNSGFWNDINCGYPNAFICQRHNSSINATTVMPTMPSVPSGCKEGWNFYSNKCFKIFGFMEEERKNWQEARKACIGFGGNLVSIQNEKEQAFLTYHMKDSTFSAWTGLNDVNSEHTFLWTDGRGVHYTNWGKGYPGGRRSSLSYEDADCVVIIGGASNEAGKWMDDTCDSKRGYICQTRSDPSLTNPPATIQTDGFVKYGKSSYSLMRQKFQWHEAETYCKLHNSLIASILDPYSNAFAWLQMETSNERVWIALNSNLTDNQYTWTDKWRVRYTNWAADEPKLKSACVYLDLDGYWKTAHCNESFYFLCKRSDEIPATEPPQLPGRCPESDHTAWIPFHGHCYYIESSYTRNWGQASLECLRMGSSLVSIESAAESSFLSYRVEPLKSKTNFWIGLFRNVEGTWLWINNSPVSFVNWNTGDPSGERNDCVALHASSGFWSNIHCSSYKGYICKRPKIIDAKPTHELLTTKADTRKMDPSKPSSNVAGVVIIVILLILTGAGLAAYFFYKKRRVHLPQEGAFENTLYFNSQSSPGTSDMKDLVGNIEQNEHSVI
Test: Competition of 125I-mannose-BSA binding to isolated mannose receptor on beads
Details: for IC50: 125I-mannose-BSA 2 nM, 37° C., 15 minutes, read-out: IC50 (concentration effecting 50% inhibition of 125I-mannose-BSA binding to mannose receptor)
Protocol: The assay measures the ability of the test compound to inhibit the binding of ^125 I-mannose-BSA, prepared as described, to isolated mannose receptor. To prepare solid supported receptor protein A-sepharose (IgG-SORB) is incubated with rabbit anti-human mannose receptor antiserum for 20 minutes at room temperature. The beads are then washed by sedimentation 3 times in Tris-buffered saline containing 1% Triton X-100, 1% BSA and 15 mM CaCl2 (assay buffer). The beads are then suspended in an assay buffer and purified mannose receptor (Lennartz, M. R. et al., J Biol Chem (1987) 262:9942-9944 (supra)) is added, followed by incubation for 30 minutes at 37° C. The beads are washed again three times to remove unbound receptor.
In the assay, the receptor-linked beads are resuspended in a total volume of 100 μL assay buffer containing 0.1 μCi ^125 I-mannose-BSA (2 nM) prepared according to (Stahl, P. et al., Cell (1980) (supra)) with and without test compound. Following incubation at 37° C. for 15 minutes, the beads are diluted in ice cold buffer and washed three times in the same assay buffer as the dissociation or receptor/ligand at 4° C. is quite slow. The cpm of ^125 I-mannose-BSA remaining in the […] is determined, and the percent inhibition of test compound at various concentrations calculated. The IC50 is then the concentration which effects a 50% inhibition in binding. Nonspecific binding of ligand to beads is determined by adding excess yeast mannan to parallel assays and accounted for in the calculations.
The ^125 I-mannose-BSA used in the assay binds to receptor beads with a Kd of 2 nM as determined in the foregoing assay using unlabeled mannose-BSA as test compound.
The competition was conducted as set forth above, using as test compounds, mannose, oligosaccharides containing 3, 5, 7, 9 or 13 mannose residues linked α1, 4 (Man9 and Man13, respectively) and two proteins known to contain mannose residues, β-glucuronidase and invertase. ^125 I-mannose-BSA at 2 nM was used in the assay and mannose-BSA was used in a control. Varying concentrations of test compound were used to determine the IC50 for each material.
The compounds synthesized in Example 2 were tested in the assay system described in Example 1 above under the conditions therein set forth. FIGS. 2 and 3 show the results. The IC50 (concentration of test compound which effects 50% inhibition of binding of labeled mannose-BSA under the conditions of the assay) can be read from the figures.

Row | fold less effective than the mannose oligosaccharides in inhibiting 125I-mannose-BSA binding (relative to Man9/Man13, FIG. 1) | ability to inhibit the binding of 125I-mannosyl-BSA after digestion with pronase (digested with pronase) | Compound | IC50 [µM]
1 | at least 1,000 fold |  | O=C[C@@H](O)[C@@H](O)[C@H](O)[C@H](O)CO [Mannose, mannose] | 
2 |  | destroyed | Invertase: protein known to contain mannose residues | 0.01 to 0.1
3 |  |  | Man9 | ~20
